Results on 20 molecules are retold here after US12312356B2, “Anthelmintic heterocyclic compounds” (Boehringer Ingelheim Vetmedica GmbH, priority 2020, dated 2025).

SMILES strings stand for the structures.

Test [1] relates to L4 stage Dirofilaria immitis worms. As to the kind of experiment: Screening method to test activity against L4 stage larvae of Dirofilaria immitis (motility, dose response). The format is cell-based. The note with it: 72 h, read-out: EC50 value (motility of L4 larvae).
Test [2] deals with microfilariae of Dirofilaria immitis. As to the kind of experiment: Screening method to test activity against microfilaria of Dirofilaria immitis (motility, dose response). In kind it is cell-based. The note with it: 72 h, read-out: EC50 value (motility of the microfilaria).

As a reminder, the EC50 is the concentration needed to bring the measured effect to its halfway point. Consider `Cc1nc2c(C(C)C)c(C(=O)N[C@H]3CCOc4ccccc43)cnn2c1C1=CCC(C(F)(F)F)CC1` (stereo partly drawn) [Compound 327, N-[(4S)-3,4-dihydro-2H-1-benzopyran-4-yl]-8-isopropyl-2-methyl-3-[4-(trifluoromethyl)cyclohex-1-en-1-yl]imidazo[1,2-b]pyridazine-7-carboxamide], for which the EC50 in test [1] was in the range of 1 to 10 nM.

Take `Cc1nc2c(C(C)(C)C)c(C(=O)NN3CCOc4ccccc43)cnn2c1-c1cc(Cl)cc(Cl)c1` [Compound 614, 8-tert-butyl-3-(3,5-dichlorophenyl)-N-(2,3-dihydro-1,4-benzoxazin-4-yl)-2-methylimidazo[1,2-b]pyridazine-7-carboxamide]: the EC50 in test [2] lay within 1 to 10 nM.

As to `Cc1nc2c(C(C)C)c(C(=O)N[C@H]3CCOc4ccccc43)cnn2c1C#N` [Compound 366, 3-cyano-N-[(4S)-3,4-dihydro-2H-1-benzopyran-4-yl]-8-isopropyl-2-methylimidazo[1,2-b]pyridazine-7-carboxamide], the EC50 in test [1] fell in the range of 1000 to 10000 nM.

Regarding `Cc1nc2c(C(C)C)c(C(=O)N[C@H]3CCOc4ccccc43)cnn2c1N1CCCCC1` [Compound 324, N-[(4S)-3,4-dihydro-2H-1-benzopyran-4-yl]-8-isopropyl-2-methyl-3-(piperidin-1-yl)imidazo[1,2-b]pyridazine-7-carboxamide], the EC50 in test [2] is less than 1 nM; in test [1], 1 to 10 nM.

Take `Cc1nc2c(C(C)C)c(C(=O)N[C@H]3CCOc4ccccc43)cnn2c1-c1cc(F)cc(F)c1` [Compound 175, 3-(3,5-difluorophenyl)-N-[(4S)-3,4-dihydro-2H-1-benzopyran-4-yl]-8-isopropyl-2-methylimidazo[1,2-b]pyridazine-7-carboxamide]: the EC50 in test [2] and in test [1] was 1 to 10 nM throughout.

Consider `Cc1nc2c(C(C)C)c(C(=O)N[C@H]3CCOc4ccccc43)cnn2c1[C@H]1CC[C@H](C(F)(F)F)CC1` [Compound 326, N-[(4S)-3,4-dihydro-2H-1-benzopyran-4-yl]-8-isopropyl-2-methyl-3-[(1r,4r)-4-(trifluoromethyl)cyclohexyl]imidazo[1,2-b]pyridazine-7-carboxamide], for which the EC50 in test [1] lay in the range of 10 to 100 nM.

Turning to `Cc1nc2c(C(C)C)c(C(=O)N[C@H]3CCOc4ccccc43)cnn2c1-c1cc(Cl)cc(Cl)c1` [Compound 271, 3-(3,5-dichlorophenyl)-N-[(4S)-3,4-dihydro-2H-1-benzopyran-4-yl]-8-isopropyl-2-methylimidazo[1,2-b]pyridazine-7-carboxamide], the concentration for a half-maximal effect (EC50) in test [2] was 1 to 10 nM; in test [1], less than 1 nM.

On to `Cc1nc2c(C(C)C)c(NC(=O)[C@H]3CCOc4ccccc43)cnn2c1-c1cc(F)cc(F)c1` [Compound 320, (4S)—N-[3-(3,5-difluorophenyl)-8-isopropyl-2-methylimidazo[1,2-b]pyridazin-7-yl]-3,4-dihydro-2H-1-benzopyran-4-carboxamide], for which the EC50 in test [1] was in the range of 10 to 100 nM.

Regarding `Cc1nc2c(C(C)C)c(C(=O)N[C@H]3CCOc4ccccc43)cnn2c1[C@H]1CC[C@@H](C(F)(F)F)CC1` [Compound 326-0, N—((S)-chroman-4-yl)-8-isopropyl-2-methyl-3-((1s,4R)-4-(trifluoromethyl)cyclohexyl)imidazo[1,2-b]pyridazine-7-carboxamide], the EC50 in test [2] fell in the range of 10 to 100 nM; in test [1], 1 to 10 nM.

For `CC(C)c1c(C(=O)N[C@H]2CCOc3ccccc32)cnn2c(-c3cc(Cl)cc(Cl)c3)cnc12` [Compound 352, 3-(3,5-dichlorophenyl)-N-[(4S)-3,4-dihydro-2H-1-benzopyran-4-yl]-8-isopropylimidazo[1,2-b]pyridazine-7-carboxamide], the EC50 in test [2] is 10 to 100 nM.

As to `CC(C)c1c(C(=O)N[C@H]2CCOc3ccc(F)cc32)cnn2c(Cl)c(-c3cc(Cl)cc(Cl)c3)nc12` [Compound 304-0, 3-chloro-2-(3,5-dichlorophenyl)-N-[(4S)-6-fluoro-3,4-dihydro-2H-1-benzopyran-4-yl]-8-isopropylimidazo[1,2-b]pyridazine-7-carboxamide], the EC50 in test [1] lay within 1000 to 10000 nM.

In the case of `O=C(N[C@H]1CCOc2ccccc21)c1cnn2c(-c3cc(Cl)cc(Cl)c3)cnc2c1N1CCOCC1` [Compound 511, 3-(3,5-dichlorophenyl)-N-[(4S)-3,4-dihydro-2H-1-benzopyran-4-yl]-8-(morpholin-4-yl)imidazo[1,2-b]pyridazine-7-carboxamide], the EC50 in test [2] lay in the range of 10 to 100 nM.

As to `CC(=O)c1nc2c(C(C)C)c(C(=O)N[C@H]3CCOc4ccccc43)cnn2c1-c1cc(Cl)cc(Cl)c1` [Compound 558, 2-acetyl-3-(3,5-dichlorophenyl)-N-[(4S)-3,4-dihydro-2H-1-benzopyran-4-yl]-8-isopropylimidazo[1,2-b]pyridazine], the EC50 in test [2] fell in the range of 10 to 100 nM.

Consider `Cc1nc2c(C(C)C)c(NC(=O)[C@@H]3CCOc4ccccc43)cnn2c1-c1cc(F)cc(F)c1` [Compound 320-0, (4R)—N-[3-(3,5-difluorophenyl)-8-isopropyl-2-methylimidazo[1,2-b]pyridazin-7-yl]-3,4-dihydro-2H-1-benzopyran-4-carboxamide], for which the EC50 in test [1] was in the range of 1000 to 10000 nM.

For `O=C(N[C@H]1CCOc2ccccc21)c1cnn2c(-c3cc(Cl)cc(Cl)c3)c(C(F)(F)F)nc2c1N1CCOCC1` [Compound 450, 3-(3,5-dichlorophenyl)-N-[(4S)-3,4-dihydro-2H-1-benzopyran-4-yl]-8-(morpholin-4-yl)-2-(trifluoromethyl)imidazo[1,2-b]pyridazine-7-carboxamide], the EC50 in test [2] was 100 to 1000 nM.

As for `Cc1nc2c(C(C)(C)F)c(C(=O)N[C@H]3CCOc4ccccc43)cnn2c1-c1cc(F)cc(F)c1` [Compound 277, 3-(3,5-difluorophenyl)-N-[(4S)-3,4-dihydro-2H-1-benzopyran-4-yl]-8-(2-fluoropropan-2-yl)-2-methylimidazo[1,2-b]pyridazine-7-carboxamide], the EC50 in test [2] and in test [1] was 1 to 10 nM in each case.

For the molecule `Cc1nc2c(C(C)(C)C)c(C(=O)N[C@H]3CCOc4ccccc43)cnn2c1-c1cc(Cl)cc(Cl)c1` [Compound 306, 8-tert-butyl-3-(3,5-dichlorophenyl)-N-[(4S)-3,4-dihydro-2H-1-benzopyran-4-yl]-2-methylimidazo[1,2-b]pyridazine-7-carboxamide], the EC50 in test [2] was 1 to 10 nM; in test [1], less than 1 nM.

For the molecule `Cc1nc2c(C(C)C)c(C(=O)N[C@H]3CCOc4ccccc43)cnn2c1C(C)(C)C` [Compound 323, 3-tert-butyl-N-[(4S)-3,4-dihydro-2H-1-benzopyran-4-yl]-8-isopropyl-2-methylimidazo[1,2-b]pyridazine-7-carboxamide], the values for the EC50 in test [2] and in test [1] were 10 to 100 nM and 100 to 1000 nM, respectively.

Consider `C=C(C)c1c(C(=O)N[C@H]2CCOc3ccccc32)cnn2c(-c3cc(F)cc(F)c3)c(C)nc12` [Compound 279, 3-(3,5-difluorophenyl)-N-[(4S)-3,4-dihydro-2H-1-benzopyran-4-yl]-2-methyl-8-(prop-1-en-2-yl)imidazo[1,2-b]pyridazine-7-carboxamide], for which the 50% effective concentration (EC50) in test [2] lay within 10 to 100 nM.

Take `Cc1nc2c(C(C)C)c(C(=O)N[C@H]3CCOc4ccccc43)cnn2c1CC(C)C` [Compound 323-0, N-[(4S)-3,4-dihydro-2H-1-benzopyran-4-yl]-2-methyl-3-(2-methylpropyl)-8-(propan-2-yl)imidazo[1,2-b]pyridazine-7-carboxamide]: the EC50 in test [2] and in test [1] was 10 to 100 nM throughout.
